In patent US7713994B2 (Wyeth LLC, priority 2005, dated 2010) one finds melting point and IC50 data, which are given here for 23 molecules.

One data set has as its system HCT-116. The data set is described as follows: Cytotoxicity assay (SRB), HCT-116. The data set is classed as cell-based. The settings on record: Homo sapiens, HCT-116, 72 h, HCT116 cells, SRB, read-out: In Vitro Cellular Activity IC50 HCT116. An outline of the steps: (§1)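 Plate cells, let them attach overnight, add compound dilutions in RPMI 1640/5% FBS, and incubate 3 days (BT474 6 days). Then fix with TCA, stain with SRB, dissolve the dye in Tris and read at 540 nm.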

The target in another data set is T1, cyclin E/CDK2 enzyme (Homo sapiens, UniProt P24941).
T1 construct: made in house; host or cells: Sf9 insect cells, recombinant baculovirus
As to the kind of experiment: CDK2 ELISA kinase assay (phospho-Rb ser 795 detection). The data set is classed as biochemical. The settings on record: In Vitro Enzyme Assays, read-out: CDK2 IC50. An outline of the steps: (§2)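 Wells were coated overnight with GST-Rb C-terminal fragment, then blocked. Compound (10 ug/ml final) and cyclin/CDK enzyme from baculovirus-infected Sf9 cells with 200 μM ATP reacted 1 h at 30° C. Ser795 phosphorylation was detected by ELISA at 450 nm.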
A general note: In an ELISA, binding on a coated surface is turned into a signal by an enzyme label.

Another data set deals with LoVo. As to the kind of experiment: Cytotoxicity assay (SRB), LoVo. The conditions noted are these: Homo sapiens, LoVo, 72 h, LoVo cells, SRB, read-out: In Vitro Cellular Activity IC50 LOVO. The data set is classed as cell-based. In outline: as §1
For a further data set, the system named is MCF-7. As to the kind of experiment: Cytotoxicity assay (SRB), MCF-7. In kind it is cell-based. The settings on record: Homo sapiens, MCF7, 72 h, MCF-7 cells, SRB, read-out: In Vitro Cellular Activity IC50 MCF-7. An outline of the steps: as §1
For a further data set, the target named is T2, cyclin D1/cdk 4 enzyme (Homo sapiens, UniProt P11802).
T2 construct: made in house; host or cells: Sf9 insect cells, recombinant baculovirus
As to the kind of experiment: CDK4 ELISA kinase assay (phospho-Rb ser 795 detection). The settings on record: In Vitro Enzyme Assays, 200 μM ATP, read-out: CDK4 IC50. In kind it is biochemical. In outline: as §2

For the next data set, the target named is T3, cyclin B/CDK1 enzyme (Homo sapiens, UniProt P06493).
T3 construct: purchased New England BioLabs; host or cells: Sf9 insect cells, recombinant baculovirus
The data set is described as follows: CDK1 ELISA kinase assay (phospho-Rb ser 795 detection). In kind it is biochemical. The conditions noted are these: In Vitro Enzyme Assays, read-out: CDK1 IC50. An outline of the steps: as §2

A further data set has as its system BT474. As to the kind of experiment: Cytotoxicity assay (SRB), BT474. In kind it is cell-based. An outline of the steps:
as §1

[1] abbreviates: Homo sapiens, BT-474, 144 h, BT474 cells, SRB, 6 days; read-out: In Vitro Cellular Activity IC50 BT474.

Counter-ions that a name gives are not always drawn. Like-named read-outs stand apart in the source and are kept apart here.

T3 sequence (P06493 whole entry): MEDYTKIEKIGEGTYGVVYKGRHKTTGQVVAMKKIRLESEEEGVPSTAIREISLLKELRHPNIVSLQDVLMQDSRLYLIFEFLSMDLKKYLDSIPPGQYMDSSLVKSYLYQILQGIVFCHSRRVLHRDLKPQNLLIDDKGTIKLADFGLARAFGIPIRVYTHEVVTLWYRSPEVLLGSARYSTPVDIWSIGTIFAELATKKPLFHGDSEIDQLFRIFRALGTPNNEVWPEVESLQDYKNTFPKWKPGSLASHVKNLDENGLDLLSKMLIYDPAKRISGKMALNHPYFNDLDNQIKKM
T3 sequence (P14635 whole entry partner): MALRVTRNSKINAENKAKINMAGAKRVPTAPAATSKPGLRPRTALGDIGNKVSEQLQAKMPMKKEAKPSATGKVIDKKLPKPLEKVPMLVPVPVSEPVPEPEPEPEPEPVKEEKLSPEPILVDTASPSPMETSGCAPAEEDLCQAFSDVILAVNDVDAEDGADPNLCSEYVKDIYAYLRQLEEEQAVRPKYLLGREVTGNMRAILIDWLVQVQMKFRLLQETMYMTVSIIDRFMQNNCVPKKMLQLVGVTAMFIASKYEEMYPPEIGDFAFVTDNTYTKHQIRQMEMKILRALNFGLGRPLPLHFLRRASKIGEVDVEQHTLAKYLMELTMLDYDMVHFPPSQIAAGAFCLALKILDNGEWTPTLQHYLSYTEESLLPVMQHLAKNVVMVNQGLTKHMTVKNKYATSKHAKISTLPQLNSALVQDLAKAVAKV
T2 sequence (P11802 whole entry, species assumed): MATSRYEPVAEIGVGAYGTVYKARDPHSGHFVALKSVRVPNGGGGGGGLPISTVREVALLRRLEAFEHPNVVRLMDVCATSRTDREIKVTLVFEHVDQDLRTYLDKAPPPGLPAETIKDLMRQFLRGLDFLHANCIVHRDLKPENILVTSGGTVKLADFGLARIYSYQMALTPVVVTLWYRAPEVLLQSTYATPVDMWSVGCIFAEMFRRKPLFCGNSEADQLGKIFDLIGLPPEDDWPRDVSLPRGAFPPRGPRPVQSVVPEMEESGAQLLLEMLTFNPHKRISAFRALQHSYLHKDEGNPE
T2 sequence (P24385 whole entry partner, species assumed): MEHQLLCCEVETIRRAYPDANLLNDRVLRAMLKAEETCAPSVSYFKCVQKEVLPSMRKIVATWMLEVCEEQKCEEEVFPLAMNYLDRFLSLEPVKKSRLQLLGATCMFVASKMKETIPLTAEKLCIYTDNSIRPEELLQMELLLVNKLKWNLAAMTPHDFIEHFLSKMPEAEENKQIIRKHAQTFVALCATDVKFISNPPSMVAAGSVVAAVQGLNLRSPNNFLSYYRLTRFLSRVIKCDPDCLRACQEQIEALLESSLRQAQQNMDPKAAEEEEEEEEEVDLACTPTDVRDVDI

A word on the melting point: it is the temperature of the solid-liquid transition. `COc1ccc(CN/C=C2\C(=O)NC(=O)c3ccccc32)cc1O` (as salt: hydrochloride) [Example 98, (4Z)-4-{[(3-Hydroxy-4-methoxybenzyl)amino]methylene}isoquinoline-1,3(2H,4H)-dione] had a melting point of 192 to 193 °C.
The same measure, in the same setting: the result for `COc1ccc(CN/C=C2\C(=O)NC(=O)c3ccc(I)cc32)cc1O` (as salt: hydrochloride) [Example 80, (4Z)-6-Iodo-4-{[(3-hydroxy-4-methoxybenzyl)amino]methylene}isoquinoline-1,3(2H,4H)-dione] reads 209 to 210 °C; that for `CN1CCN(c2ccc(N/C=C3\C(=O)NC(=O)c4ccc(-c5ccc(C=O)cc5)cc43)cc2)CC1` (hydrate or solvate) [Example 115, 4-[(4Z)-4-({[4-(4-Methylpiperazin-1-yl)phenyl]amino}methylene)-1,3-dioxo-1,2,3,4-tetra-hydroisoquinolin-6-yl]benzaldehyde], 152 to 153 °C; that for `CN1CCN(c2ccc(N/C=C3\C(=O)NC(=O)c4ccc(C(=O)O)cc43)cc2)CC1` [Example 51, (4Z)-4-({[4-(4-Methylpiperazin-1-yl)phenyl]amino}methylene)-1,3-dioxo-1,2,3,4-tetrahydroisoquinoline-6-carboxylic acid], 278 to 280 °C.
On the same count and under the same terms, the result for `CN1CCN(c2ccc(N/C=C3\C(=O)NC(=O)c4ccc(-c5ccc(C=O)o5)cc43)cc2)CC1` (hydrate or solvate) [Example 124, 5-[(4Z)-4-({[4-(4-Methylpiperazin-1-yl)phenyl]amino}methylene)-1,3-dioxo-1,2,3,4-tetrahydroisoquinolin-6-yl]-2-furaldehyde] reads 218 to 220 °C; that for `CN1CCN(c2ccc(N/C=C3\C(=O)NC(=O)c4ccccc43)cc2)CC1`, 245 to 246 °C.
Still for that read-out and setting: the result for `CN1CCN(CCCNC=C2C(=O)NC(=O)c3ccc(-n4cccc4)cc32)CC1` (as salt: TFA) [Example 279, 4-{[3-(4-Methyl-piperazin-1-yl)-propylamino]-methylene}-6-pyrrol-1-yl-4H-isoquinoline-1,3-dione] reads 207 to 210 °C.
Molecule `COc1ccc(CN/C=C2\C(=O)NC(=O)c3ccc(-c4ccsc4)cc32)cc1O` (as salt: hydrochloride) [Example 88, (4Z)-4-{[(3-Hydroxy-4-methoxybenzyl)amino]methylene}-6-thien-3-ylisoquinoline-1,3(2H,4H)-dione] gave a melting point of 219 to 220 °C.
On the same count and under the same terms, next, `O=C1NC(=O)c2ccc([N+](=O)[O-])cc2/C1=C/Nc1ccc(CN2CCCCC2)cc1` [Example 42, (4Z)-6-Nitro-4-{[(4-piperidin-1-ylmethyl)phenyl]amino}methyleneisoquinoline-1,3(2H,4H)-dione]: 225 to 235 °C (dec.); `C[C@@H]1CN(c2ccc(N/C=C3\C(=O)NC(=O)c4ccc(-c5ccc(F)cc5)cc43)cc2)C[C@H](C)N1` (as salt: sodium) [Example 205, (4Z)-4-({[4-(3,5-Dimethylpiperazin-1-yl)phenyl]amino}methylene)-6-(4-fluorophenyl)-isoquinoline-1,3(2H,4H)-dione]: 193 to 194 °C.
Same read-out and setting: next, `O=C1NC(=O)c2ccc(Br)cc2/C1=C/NCc1cccnc1` [Example 30, (4Z)-6-Bromo-4-{[(pyridin-3-ylmethyl)amino]methylene}isoquinoline-1,3(2H,4H)-dione]: 299 to 300 °C.
Still for that read-out and setting: next, `O=C1NC(=O)c2ccc(Br)cc2/C1=C/NCc1ccc(OCCO)c(O)c1` (as salt: potassium) [Example 139, (4Z)-6-Bromo-4-({[3-hydroxy-4-(2-hydroxyethoxy)benzyl]amino}methylene)isoquinoline-1,3(2H,4H)-dione]: 166 to 167 °C; `COc1ccc(-c2ccc3c(c2)/C(=C/Nc2ccc(CN4CCCCC4)cc2)C(=O)NC3=O)cc1` (hydrate or solvate) [Example 116, (4Z)-6-(4-Methoxyphenyl)-4-({[4-(piperidin-1-ylmethyl)phenyl]amino}methylene)-isoquinoline-1,3(2H,4H)-dione]: 168 to 169 °C.
`O=C1NC(=O)c2ccccc2/C1=C/Nc1ccc2cn[nH]c2c1` [Example 7, (4Z)-4-[(1H-Indazol-6-ylamino)methylene]isoquinoline-1,3(2H,4H)-dione] came in with a melting point greater than 300 °C.
Same read-out and setting: next, `O=C1NCc2ccccc2/C1=C/Nc1ccc(-c2c[nH]cn2)cc1` [Example 3, (4Z)-4-({[4-(1H-Imidazol-4-yl)phenyl]amino}methylene)-1,4-dihydro-3(2H)-isoquinolinone]: 151 to 152 °C (dec.); `CC(=O)Nc1ccc(CN/C=C2\C(=O)NC(=O)c3ccc(I)cc32)cc1O` (as salt: potassium) [Example 151, N-[2-Hydroxy-4-({[(Z)-(6-iodo-1,3-dioxo-2,3-dihydroisoquinolin-4(1H)-′ylidene)methyl]amino}methyl)phenyl]acetamide]: 345 to 346 °C.
Same read-out and setting: next, `CN1CCN(c2ccc(N/C=C3\C(=O)NC(=O)c4ccc(-c5ccoc5)cc43)cc2)CC1` (as salt: sodium) [Example 236, (4Z)-6-(3-Furyl)-4-({[4-(4-methylpiperazin-1-yl)phenyl]amino}methylene)isoquinoline-1,3(2H,4H)-dione]: 190 to 191 °C; `COc1ccc(CN/C=C2\C(=O)NC(=O)c3ccc(-c4ccc(F)cc4)cc32)cc1O` (as salt: sodium) [Example 208, (4Z)-6-(4-Fluorophenyl)-4-{[(3-hydroxy-4-methoxybenzyl)amino]methylene}iso-quinoline-1,3(2H,4H)-dione]: 239 to 240 °C.
A word on the IC50: it is the concentration needed to halve the response being measured. Turning to `O=C1NC(=O)c2ccc(Br)cc2/C1=C/NCc1cc[nH]c(=O)c1` [Example 225, (4Z)-6-Bromo-4-({[(2-oxo-1,2-dihydropyridin-4-yl)methyl]amino}methylene)isoquinoline-1,3(2H,4H)-dione], the IC50 with HCT-116 (three days) was greater than 50 µM; at cyclin E/CDK2 enzyme, 2.7 µM; in the data set on LoVo (three days), greater than 50 µM; with MCF-7 (three days), greater than 50 µM; at cyclin D1/cdk 4 enzyme, 0.56 µM; at cyclin B/CDK1 enzyme, greater than 50 µM. The IC50 in the data set on BT474 (setting [1]) was 19.5 µM.
With `CN1Cc2ccc(N/C=C3\C(=O)NC(=O)c4ccc(Br)cc43)cc2C1` [Example 259, (4Z)-6-Bromo-4-{[(2-methyl-2,3-dihydro-1H-isoindol-5-yl)amino]methylene}isoquinoline-1,3(2H,4H)-dione], the IC50 came to 2.5 µM with HCT-116 (three days); 2.5 µM at cyclin E/CDK2 enzyme; 3.9 µM in the data set on LoVo (three days); 5.5 µM in the data set with MCF-7 (three days); 1.2 µM on cyclin D1/cdk 4 enzyme; 20.7 µM at cyclin B/CDK1 enzyme. The IC50 in the data set with BT474 (setting [1]) is 6.8 µM.
As to `O=C1NC(=O)c2ccc(I)cc2/C1=C/Nc1ccc(N2CCC(CO)CC2)cc1` [Example 434, (4Z)-4-[({4-[4-(Hydroxymethyl)piperidin-1-yl]phenyl}amino)methylene]-6-iodoisoquinoline-1,3(2H,4H)-dione], the IC50 in the data set on HCT-116 (3 days) was 4.5 µM; on cyclin E/CDK2 enzyme it was greater than 50 µM; in the data set with LoVo (3 days), 8.2 µM; in the data set on MCF-7 (3 days), 31.5 µM; on cyclin D1/cdk 4 enzyme it was greater than 50 µM; on cyclin B/CDK1 enzyme, 40.6 µM. Moreover, in the data set on BT474 (Homo sapiens, BT-474, 144 h, BT474 cells, 6 days, SRB; read-out: In Vitro Cellular Activity IC50 BT474), the IC50 was determined as 8.1 µM.
As to `O=C1NC(=O)c2ccc(Br)cc2/C1=C/NCc1cc(O)c(O)c(O)c1` [Example 79], the IC50 in the data set with HCT-116 (three days) was greater than 50 µM; at cyclin E/CDK2 enzyme, 2.2 µM; in the data set on LoVo (three days) it was 49.5 µM; in the data set on MCF-7 (three days), greater than 50 µM; at cyclin D1/cdk 4 enzyme it was 0.026 µM; at cyclin B/CDK1 enzyme, 42.6 µM. The IC50 in the data set with BT474 (setting [1]) came out at 37.7 µM.
For the molecule `COc1c(O)cc(CN/C=C2\C(=O)NC(=O)c3ccc(Br)cc32)cc1O` [Example 210, (4Z)-6-Bromo-4-{[(3,5-dihydroxy-4-methoxybenzyl)amino]methylene}isoquinoline-1,3(2H,4H)-dione], the IC50 came to 10 µM in the data set on HCT-116 (three days); 2.1 µM at cyclin E/CDK2 enzyme; 10 µM in the data set with LoVo (three days); 6.6 µM in the data set with MCF-7 (three days); 0.008 µM on cyclin D1/cdk 4 enzyme; 18.9 µM on cyclin B/CDK1 enzyme. For the same molecule, the IC50 in the data set with BT474 (setting [1]) came out at 13 µM.
